Read-outs that look alike come from different tables or passages of the source.
Key:
isolated rat heart [1] = test: Coronary flow rate of isolated heart, ischaemia-reperfusion (Example 12)
heart = test: Coronary flow rate after 6 weeks oral treatment (Example 13); type: in vivo, Wistar rats; conditions: rats, 6 weeks treatment p.o., 40-minute ischemia, reperfusion, P < 0.001
Protocol: Sixty Wistar rats of both sexes weighing 230-280 g, 20-24 weeks of age, were obtained from the Faculty of Medicine, Ljubljana. […] A regular 12 h circadian cycle was maintained and between 5 and 7 animals were kept in each cage. The temperature of the experimental environment was 23-25° C. […] After 4-8 weeks of therapy the animals were sacrificed, blood samples were collected and heart and thoracic aorta were isolated. Each group was composed of the same number of male and female rats.

thoracic aorta = test: Endothelium-dependent relaxation of thoracic aorta after 6 weeks oral treatment (Example 13); type: in vivo, Wistar rats; conditions: rats, 6 weeks treatment p.o., NS
Protocol: Sixty Wistar rats of both sexes weighing 230-280 g, 20-24 weeks of age, were obtained from the Faculty of Medicine, Ljubljana. […] A regular 12 h circadian cycle was maintained and between 5 and 7 animals were kept in each cage. The temperature of the experimental environment was 23-25° C. […] After 4-8 weeks of therapy the animals were sacrificed, blood samples were collected and heart and thoracic aorta were isolated. Each group was composed of the same number of male and female rats. […] After mounting, rings were allowed to equilibrate at 20 mN resting tension (found to be optimal in previous experiments) for 60 min. During this period, the tension was periodically adjusted to the desired level and the K-H solution was changed every 10 minutes. After the equilibration period, the rings were contracted three times with 60 mmol/L KCl to achieve stable contractions. […] In control animals the endothelium-dependent relaxation of the thoracic aorta was constant. However, in rats treated with drugs the percentage of endothelium-dependent relaxation was increased in comparison to the control group.

[2] = tested on: isolated rat aortic rings; test: Endothelium-dependent relaxation of isolated aortic rings after incubation with drugs (Example 12)
[3] = in vivo; cited from earlier work
isolated rat heart [4] = test: LDH release rate, myocardial ischaemic-reperfusion injury of isolated heart (Example 12); conditions: losartan 1 μM; P < 0.01
arterial wall = conditions: Ex 8 valsartan group, cited from earlier work
carotid artery = conditions: cited from earlier work
[5] = tested on: high sensitivity C-reactive protein (hsCRP); conditions: Ex 9 valsartan group, 1 month treatment; calculated on data from co-pending patent application; cited from earlier work
common carotid artery = conditions: cited from earlier work
brachial artery = conditions: cited from earlier work; for FMD, improvement (increase): Ex 8 valsartan group, 30 days vs before
[6] = Ex 8, 1 month treatment period with Valsartan only
[7] = Ex 8 valsartan group, 20 mg daily, 30 days vs before
[8] = Ex 8 valsartan group, 20 mg daily, 30 days
[9] = Ex 8 valsartan group, 7 months of rest period

CC(C)c1c(C(=O)Nc2ccccc2)c(-c2ccccc2)c(-c2ccc(F)cc2)n1CC[C@@H](O)C[C@@H](O)CC(=O)O [atorvastatin]
Increase in coronary flow compared to controls (isolated rat heart [1]; atorvastatin 0.1 μM, P < 0.05): 52.9%
Increase in coronary flow compared to controls (heart; daily dose 5 mg/kg): 86.9%
Increase of endothelium dependent relaxation compared to controls (thoracic aorta; daily dose 5 mg/kg): 6.9%
Endothelium dependent relaxation compared to controls ([2]; atorvastatin 1 μM, P < 0.001): 21.1%

CCCCc1nc(Cl)c(CO)n1Cc1ccc(-c2ccccc2-c2nn[nH]n2)cc1 [losartan]
Increase in coronary flow compared to controls (isolated rat heart [1]; losartan 1 μM, P < 0.001): 67.3%
Increase in coronary flow compared to controls (heart; daily dose 2 mg/kg): 89.6%
Increase of endothelium dependent relaxation compared to controls (thoracic aorta; daily dose 2 mg/kg): 7.3%
Endothelium dependent relaxation compared to controls ([2]; losartan 10 μM, P < 0.01): 17.0%
half-life time (t1/2) in the blood plasma [3]: 1.5 to 2 h
Decrease of the LDH release rates compared to controls (isolated rat heart [4]): 58.6%

CC(C)n1c(/C=C/C(O)CC(O)CC(=O)O)c(-c2ccc(F)cc2)c2ccccc21 (stereo not drawn) [fluvastatin]
half-life time (t1/2) in the blood plasma [3]: about 2.5 hours

CCCCC(=O)N(Cc1ccc(-c2ccccc2-c2nnn[nH]2)cc1)[C@H](C(=O)O)C(C)C [valsartan]
Arterial age according to age normogram, improvement (arterial wall; 20 mg daily, 30 days vs before): −7.0 years
Arterial age according to age normogram, after treatment (arterial wall; 20 mg daily, 30 days): 38.0 years
Arterial age according to age-related normogram (arterial wall; 7 months of rest period): 43.5 years
Arterial age, difference to before treatment (in brackets) (arterial wall; 7 months of rest period): −1.5 years
Arterial age according to age normogram, before treatment (arterial wall; baseline): 45.0 years
β-stiffness of the carotid artery decreased by (carotid artery; [6]): 13.7%
β-stiffness, improvement (carotid artery; [7]): −13.7%
β-stiffness, after treatment (carotid artery; [8]): 6.40 U
β-stiffness, residual improvement in % of effect achieved after 1 month of treatment (carotid artery; [9]): 9.2%
β-stiffness, before treatment (carotid artery; Ex 8 valsartan group, baseline): 7.28 U
Change in hs-CRP value after treatment [5]: +2.45%
PWV decreased by (common carotid artery; [6]): 7.2%
PWV, improvement (common carotid artery; [7]): −7.2%
PWV, after treatment (common carotid artery; [8]): 5.41 m/s
PWV, residual improvement in % of effect achieved after 1 month of treatment (common carotid artery; [9]): 9.9%
PWV, before treatment (common carotid artery; Ex 8 valsartan group, baseline): 5.80 m/s
FMD, residual improvement in % of effect achieved after 1 month of treatment (brachial artery; Ex 8 valsartan group (20 mg daily, 30 days), 7 months of rest period): 30.4%
FMD, improvement (increase) (brachial artery; 20 mg daily): +156.0%
FMD, improvement (increase) (brachial artery; 20 mg daily, listed as Valsartan): 156.0%
FMD, after treatment (brachial artery; Ex 8 valsartan group: healthy men 43.0 y (n=20), 20 mg daily, 30 days, data from co-pending patent application): 5.40%
FMD, before treatment (brachial artery; Ex 8 valsartan group: healthy men 43.0 y (n=20), baseline, data from co-pending patent application): 2.11%
half-life time (t1/2) in the blood plasma [3]: about 6.0 hours

— patent publication US20130338203A1, “TREATMENT OF ARTERIAL AGEING BY COMBINATION OF RAAS INHIBITOR AND HMG-CoA REDUCTASE INHIBITOR” (FARMICOM PHARMACEUTICAL COMPANY D.O.O., priority 2011, published 2013)
